Measured values taken from paper PMC4304871 (Nature structural & molecular biology, 2014).

Test system: 10E8 antibody
Assay: Competitive 10E8 ELISA binding assay
Set-up: species or system human

- 10E8 Fab-binding activity (in words): no binding activity
Sequence: ELXKWAXLWNWFNITNZLWXIK (bicyclic or more) [SAH-MPER(662–683)(C,q)]
